# Measurements: patent publication US20050080139A1, “Naaladase inhibitors for treating huntington's disease” (priority 2001, published 2005)
# What was measured:
# [1] = system: Transgenic HD mice of the N171-82Q strain; test: Total distance traveled (overall locomotion) in HD mice; format: in vivo; conditions: 30 mg/kg from 10 weeks of age, vs vehicle
# Method: Transgenic HD mice of the […]-[…] strain and non-transgenic littermates were treated with NAALADase inhibitor Compound B (30 mg/kg) or a vehicle from 10 weeks of age. The mice were placed on a rotating rod (“rotarod”). The length of time at which the mouse fell off the rotarod was recorded as a measure of motor coordination. […] The treatment with Compound B had no effect on the rotarod performance of normal non-HD mice. The total distance traveled by the mice was also recorded as a measure of overall locomotion.
# [2] = system: Transgenic HD mice of the N171-82Q strain; test: Rotarod behavioral testing in transgenic mouse model of Huntington's disease; format: in vivo; conditions: transgenic HD mice N171-82Q, 30 mg/kg from 10 weeks of age, vs vehicle
# Method: Transgenic HD mice of the […]-[…] strain and non-transgenic littermates were treated with NAALADase inhibitor Compound B (30 mg/kg) or a vehicle from 10 weeks of age. The mice were placed on a rotating rod (“rotarod”). The length of time at which the mouse fell off the rotarod was recorded as a measure of motor coordination. […] The treatment with Compound B had no effect on the rotarod performance of normal non-HD mice.
# [3] = system: transgenic HD mice (N171-82Q); test: Survival of transgenic HD mice; format: in vivo
# Method: The effects of Compound B and vehicle on the survival of transgenic HD mice (N171-82Q) were evaluated. Thirteen mice (six male and seven female) were assigned to the Compound B treatment group, and fourteen mice (six male and eight female) were assigned to the vehicle treatment group. Treatment was continued until all the mice died.
# NAALADase = NAALADase (Homo sapiens, UniProt Q04609); conditions: NAAG as substrate of NAALADase; cited from earlier work
# NAALADase, sequence (Q04609 whole entry): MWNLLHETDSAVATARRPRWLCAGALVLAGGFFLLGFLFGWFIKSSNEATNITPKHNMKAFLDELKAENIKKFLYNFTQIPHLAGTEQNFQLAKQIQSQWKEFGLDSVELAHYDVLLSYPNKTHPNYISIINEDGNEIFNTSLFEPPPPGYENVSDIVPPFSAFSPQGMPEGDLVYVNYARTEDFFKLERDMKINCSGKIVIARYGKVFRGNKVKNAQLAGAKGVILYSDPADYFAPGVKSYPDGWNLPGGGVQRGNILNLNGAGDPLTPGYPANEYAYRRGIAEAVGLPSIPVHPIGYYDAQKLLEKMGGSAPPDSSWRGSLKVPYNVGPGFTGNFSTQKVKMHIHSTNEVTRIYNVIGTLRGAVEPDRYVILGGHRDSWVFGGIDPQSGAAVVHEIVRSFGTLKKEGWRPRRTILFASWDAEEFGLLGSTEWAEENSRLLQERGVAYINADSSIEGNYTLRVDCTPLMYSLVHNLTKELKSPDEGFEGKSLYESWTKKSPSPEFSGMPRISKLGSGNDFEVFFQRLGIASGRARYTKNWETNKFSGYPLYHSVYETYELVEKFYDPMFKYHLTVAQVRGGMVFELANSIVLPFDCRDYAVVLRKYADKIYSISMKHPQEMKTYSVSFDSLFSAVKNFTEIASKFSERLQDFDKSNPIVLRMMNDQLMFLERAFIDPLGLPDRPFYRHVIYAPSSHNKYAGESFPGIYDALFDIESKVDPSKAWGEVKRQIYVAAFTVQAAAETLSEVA
Compound,total distance traveled (overall locomotion) [1],"rotarod performance (length of time on the rotarod, motor coordination) [2]","survival time vs vehicle ([3]; female transgenic HD mice, p-value 0.03)","survival time vs vehicle ([3]; transgenic HD mice N171-82Q, both sexes, difference in median survival time)","median survival time ([3]; transgenic HD mice N171-82Q, both sexes, vehicle 158.5 days, p-value=0.07) [days]",Km (NAALADase) [µM]
"O=C(O)CCC(CCCS)C(=O)O (stereo not drawn) [Compound B, 2-(3-sulfanylpropyl)-pentanedioic acid]",no apparent effect on overall locomotion,stayed longer on the rotarod,significantly prolonged survival time,not statistically significant,184,
N-acetyl-aspartyl-glutamate [NAAG],,,,,,0.54
